These results are taken from ChEMBL document CHEMBL1201862, “PubChem BioAssay data set” (2004).

Some test systems named below: DMS-273; MOLT-4; IGROV-1; CAKI-1; SF-295; SNB-19; HCC 2998; HCT-15; CCRF-CEM; COLO 205; A498; UO-31; OVCAR-8; SK-MEL-5; SK-MEL-28; HL-60; UACC-62; U-251.
Experiment in all cases: NCI tumour cell line growth inhibition, 48 h

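How tested: cells in 96-well plates exposed to compound for 48 hours at five concentrations. GI50 is the concentration that inhibits growth by half.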 Calls of active or inactive are those of the source. Rule as the data show it: active = GI50 up to about 1.1 µM and inactive = higher.

As for `O=C1c2cccc3cc4ccccc4c(c23)C(=O)N1CCNCCNCCNCCN1C(=O)c2cccc3cc4ccccc4c(c23)C1=O`, the GI50 with DMS-273, in the assay on MOLT-4, in the assay on IGROV-1, with CAKI-1, in the assay on SF-295 and with SNB-19 was < 10 nM (active) each time. For the same compound, the GI50 in the assay with HCC 2998 is < 13.4 nM (active); with HCT-15, below 10 nM; in the assay with CCRF-CEM it was < 10 nM (active); with COLO 205 it was < 10 nM (active); in the assay with A498 it was 190 nM (active); with UO-31 it was 33.5 nM (active). The GI50 in the assay with OVCAR-8 was < 10 nM (active); in the assay on SK-MEL-5, 24.3 nM (active); in the assay with SK-MEL-28, < 10 nM (active); with HL-60, < 10 nM (active); with UACC-62 it was < 10 nM (active); in the assay on U-251, < 10 nM (active).
